# Literature values as cited in patent publication US9987231B2, “Compositions and methods for delivery of omeprazole plus acetylsalicylic acid” (POZEN INC., priority 2011, dated 2018).
smiles,measurement,setting,value
COc1ccc2[nH]c([S+]([O-])Cc3ncc(C)c(OC)c3C)nc2c1 (racemic) [Omeprazole],Systemic bioavailability,after repeated dose,about 60%
same,Orally given dose excreted as metabolites in the urine,"in vivo, po",About 80%
same,Time in which absorption is usually completed,small intestine,3 to 6 h
same,Plasma protein binding,Plasma protein,about 95%
